We go through eleven compounds from US11104664B2, “4,5,6-trisubstituted indazole derivatives, and preparation method and pharmaceutical use thereof” (SHANGHAI HAIYAN PHARMACEUTICAL TECHNOLOGY CO., LTD., priority 2016, dated 2021).

This experiment concerns the target Recombinant PRC2 (EZH2-Y641F) (Homo sapiens (Human), UniProt Q15910, Y641F). Briefly: In vitro methyltransferase activity assay (LANCE Ultra). The class given is biochemical. To be noted: for IC50: 2.5 μM SAM/250 nM H3(1-50)K27me1, 3 hours, room temperature; for inhibitory activity against the enzyme (in words): SAR comment on Table 1, reduced relative to comparator compounds (P-7, P-13/14). The protocol: Recombinant PRC2 (EZH2-Y641F) was purchased from Active motif, S-adenosyl-methionine (SAM) and Poly-L-lysine (PLL) were purchased from Sigma-Aldrich, and H3(1-50)K27me1 peptide was purchased from Cisbio. LANCEUltrasystem (Perkinelmer) was used for detection system. In the enzyme activity test, compounds to be tested were diluted by 8 gradient points in a ratio of 1:3, and added into each well in a reaction plate, and 100 ng recombinase was added, followed by a buffer [20 mM Tris pH8.5, 2 mM MgCl2, 0.01% Tween-20, 1 mM TCEP] containing 2.5 μM SAM/250 nM H3 (1-50)K27me1 premixtures. Enzymatic reaction thus began at room temperature. After reacted for 3 hours, a detection solution premixed with PLL, detection antibody and Ulight was added, and reacted for 1 hour at room temperature. The fluorescence value was then read on a Tecan infinite pro. IC50 was calculated by fitting in a four-factor model in the XLfit software.
On the technique in general: Time-resolved FRET reads energy transfer from a long-lived donor to a nearby acceptor.

Recombinant PRC2 (EZH2-Y641F), sequence (Q15910 whole entry Y641F): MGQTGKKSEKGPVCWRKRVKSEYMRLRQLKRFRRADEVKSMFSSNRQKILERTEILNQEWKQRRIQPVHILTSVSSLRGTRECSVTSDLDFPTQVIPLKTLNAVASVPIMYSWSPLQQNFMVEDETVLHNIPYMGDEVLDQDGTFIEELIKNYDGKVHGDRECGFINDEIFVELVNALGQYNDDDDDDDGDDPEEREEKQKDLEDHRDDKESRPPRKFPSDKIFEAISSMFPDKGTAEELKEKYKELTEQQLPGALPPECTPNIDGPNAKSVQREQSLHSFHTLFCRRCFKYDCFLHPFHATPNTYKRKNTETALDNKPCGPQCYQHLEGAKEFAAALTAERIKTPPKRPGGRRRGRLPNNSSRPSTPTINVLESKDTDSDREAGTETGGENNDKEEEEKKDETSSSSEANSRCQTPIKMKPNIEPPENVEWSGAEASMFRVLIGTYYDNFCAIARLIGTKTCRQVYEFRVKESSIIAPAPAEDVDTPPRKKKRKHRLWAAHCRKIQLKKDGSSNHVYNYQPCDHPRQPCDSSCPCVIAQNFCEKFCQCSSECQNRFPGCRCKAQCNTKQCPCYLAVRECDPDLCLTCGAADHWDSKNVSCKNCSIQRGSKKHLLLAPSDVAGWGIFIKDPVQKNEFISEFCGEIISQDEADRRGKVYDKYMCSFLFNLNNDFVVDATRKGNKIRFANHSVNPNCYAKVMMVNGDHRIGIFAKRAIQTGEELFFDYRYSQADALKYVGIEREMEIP
Recombinant PRC2 (EZH2-Y641F), sequence (O75530 whole entry partner): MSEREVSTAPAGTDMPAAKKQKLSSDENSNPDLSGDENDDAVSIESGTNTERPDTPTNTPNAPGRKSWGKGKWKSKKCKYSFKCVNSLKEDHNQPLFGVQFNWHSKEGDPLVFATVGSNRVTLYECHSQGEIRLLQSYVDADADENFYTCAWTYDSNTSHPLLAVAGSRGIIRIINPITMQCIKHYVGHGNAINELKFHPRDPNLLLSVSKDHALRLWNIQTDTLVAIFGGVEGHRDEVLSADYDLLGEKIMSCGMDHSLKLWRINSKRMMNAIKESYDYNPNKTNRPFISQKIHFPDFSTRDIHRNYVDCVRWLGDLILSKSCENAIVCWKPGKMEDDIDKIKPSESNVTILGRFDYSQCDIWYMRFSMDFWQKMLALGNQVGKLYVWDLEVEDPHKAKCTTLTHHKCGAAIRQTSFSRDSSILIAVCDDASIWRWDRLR
Recombinant PRC2 (EZH2-Y641F), sequence (Q15022 whole entry partner): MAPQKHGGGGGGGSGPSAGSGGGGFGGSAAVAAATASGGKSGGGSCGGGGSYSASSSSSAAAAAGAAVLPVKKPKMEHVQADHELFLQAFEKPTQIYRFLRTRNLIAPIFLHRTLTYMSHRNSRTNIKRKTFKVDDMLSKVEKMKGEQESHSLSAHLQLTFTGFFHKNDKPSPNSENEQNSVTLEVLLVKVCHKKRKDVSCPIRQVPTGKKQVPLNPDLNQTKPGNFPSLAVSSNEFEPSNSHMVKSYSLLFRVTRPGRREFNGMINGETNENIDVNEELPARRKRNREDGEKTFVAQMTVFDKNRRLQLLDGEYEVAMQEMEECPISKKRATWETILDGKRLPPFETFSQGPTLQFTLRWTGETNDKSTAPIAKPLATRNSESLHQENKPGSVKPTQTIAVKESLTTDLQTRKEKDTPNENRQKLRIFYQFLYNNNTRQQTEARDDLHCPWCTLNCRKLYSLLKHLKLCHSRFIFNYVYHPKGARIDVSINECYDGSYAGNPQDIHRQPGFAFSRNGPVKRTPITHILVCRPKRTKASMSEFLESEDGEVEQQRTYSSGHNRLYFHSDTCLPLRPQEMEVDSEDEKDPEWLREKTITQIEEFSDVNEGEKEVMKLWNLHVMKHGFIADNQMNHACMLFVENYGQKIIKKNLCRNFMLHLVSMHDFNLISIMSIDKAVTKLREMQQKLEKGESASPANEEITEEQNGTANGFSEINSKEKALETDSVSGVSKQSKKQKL
Recombinant PRC2 (EZH2-Y641F), sequence (Q09028 whole entry partner): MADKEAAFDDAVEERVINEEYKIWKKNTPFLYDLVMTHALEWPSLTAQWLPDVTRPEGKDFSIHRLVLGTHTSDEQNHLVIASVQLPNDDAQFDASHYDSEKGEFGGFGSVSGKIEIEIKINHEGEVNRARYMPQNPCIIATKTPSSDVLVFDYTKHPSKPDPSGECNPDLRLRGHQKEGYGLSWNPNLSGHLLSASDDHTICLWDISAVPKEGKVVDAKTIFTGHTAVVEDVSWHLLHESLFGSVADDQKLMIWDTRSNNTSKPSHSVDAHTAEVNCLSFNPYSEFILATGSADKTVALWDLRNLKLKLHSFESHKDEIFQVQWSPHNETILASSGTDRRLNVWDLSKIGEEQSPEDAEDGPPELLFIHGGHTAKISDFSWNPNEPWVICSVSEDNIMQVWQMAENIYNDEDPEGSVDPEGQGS
Recombinant PRC2 (EZH2-Y641F), sequence (Q6ZN18 whole entry partner): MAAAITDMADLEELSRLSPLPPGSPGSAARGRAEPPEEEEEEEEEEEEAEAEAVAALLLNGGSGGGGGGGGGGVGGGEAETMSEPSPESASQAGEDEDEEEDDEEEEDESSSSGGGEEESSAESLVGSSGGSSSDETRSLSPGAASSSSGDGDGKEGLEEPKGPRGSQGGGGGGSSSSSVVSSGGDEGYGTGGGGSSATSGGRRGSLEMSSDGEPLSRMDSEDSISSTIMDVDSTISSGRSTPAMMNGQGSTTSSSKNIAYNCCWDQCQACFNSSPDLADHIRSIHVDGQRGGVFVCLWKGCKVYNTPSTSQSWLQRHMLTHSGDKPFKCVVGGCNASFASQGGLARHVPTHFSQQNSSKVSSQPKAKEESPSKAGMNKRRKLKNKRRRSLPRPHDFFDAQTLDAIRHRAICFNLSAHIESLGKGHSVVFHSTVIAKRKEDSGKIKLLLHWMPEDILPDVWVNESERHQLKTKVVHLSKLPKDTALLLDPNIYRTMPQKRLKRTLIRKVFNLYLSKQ

On to “7-(ethyl(tetrahydro-2H-pyran-4-yl)amino)-N-((4-methoxy-6-methyl-2-oxo-1,2-dihydropyridin-3-yl)methyl)-1,6-dimethyl-1H-imidazole-5-carboxamide [P-4]”, for which the IC50 (in general, the concentration at which inhibition is half-maximal) was found to be 0.502 µM and the “inhibitory activity against the enzyme (in words)” value (“inhibitory activity” below) is “significantly reduced”.

In the case of `CCN(c1c(C)c(C(=O)NCc2c(OC)cc(C)[nH]c2=O)cc2cn[nH]c12)C1CCOCC1` [P-3, 7-(ethyl(tetrahydro-2H-pyran-4-yl)amino)-N-((4-methoxy-6-methyl-2-oxo-1,2-dihydropyridin-3-yl)methyl)-6-methyl-1H-imidazole-5-carboxamide], the IC50 turned out to be 0.154 µM and the “inhibitory activity” value is listed as “significantly reduced”. The like results for `CCN(c1c(C)c(C(=O)NCc2c(C)cc(C)[nH]c2=O)cc2c1c(C)nn2C)C1CCC(N(C)C)CC1` (stereo not drawn) [P-42] were, in that order, 0.253 µM and “greatly reduced”. With `CCN(c1c(C)c(C(=O)NCc2c(OC)cc(C)[nH]c2=O)cc2nn(C)cc12)C1CCOCC1` [P-50, 4-(ethyl(tetrahydro-2H-pyran-4-yl)amino)-N-((4-methoxy-6-methyl-2-oxo-1,2-dihydropyridin-3-yl)methyl)-2,5dimethyl-2H-indazole-6-carboxamide], the IC50 turned out to be 0.148 µM and the “inhibitory activity” value is listed as “significantly reduced”.

Regarding `CCN(c1c(C)c(C(=O)NCc2c(OC)cc(C)[nH]c2=O)cc2nn(C)cc12)C1CCN(CC(F)(F)F)CC1` [P-12, 4-(ethyl(1-(2,2,2-trifluoroethyl)piperidin-4-yl)amino)-N-((4-methoxy-6-methyl-2-oxo-1,2-dihydropyridin-3-yl)methyl)-2,5-dimethyl-2H-indazole-6-carboxamide], the IC50 turned out to be 0.117 µM. The same measure, in the same setting: under `CCN(c1c(C)c(C(=O)NCc2c(OC)cc(C)[nH]c2=O)cc2[nH]ncc12)C1CCOCC1` [P-2, 4-(ethyl(tetrahydro-2H-pyran-4-yl)amino)-N-((4-methoxy-6-methyl-2-oxo-1,2-dihydropyridin-3-yl)methyl)-5-methyl-1H-indazole-6-carboxamide] stands 0.024 µM; under `CCN(c1c(C)c(C(=O)NCc2c(C)cc(C)[nH]c2=O)cc2c1cnn2C)C1CCC(N(C)CC(F)F)CC1` (stereo not drawn) [P-45, 4-((4-((2,2-difluoroethyl) (methyl)amino)cyclohexyl)(ethyl)amino)-N-((4,6-dimethyl-2-oxo-1,2-dihydropyridin-3-yl)methyl)-1,5-dimethyl-1H-indazole-6-carboxamide], 0.027 µM.

As for `CCN(c1c(C)c(C(=O)NCc2c(C)cc(C)[nH]c2=O)cc2c1cnn2C)C1CCN(C2CCOCC2)CC1` [P-33], the IC50 turned out to be 0.037 µM. Still for that read-out and setting: under `CCN(c1c(C)c(C(=O)NCc2c(C)cc(C)[nH]c2=O)cc2c1cnn2C)C1CCC(C)(N)CC1` (stereo not drawn) [P-46] stands 0.053 µM; under `CCN(c1c(C)c(C(=O)NCc2c(C)cc(C)[nH]c2=O)cc2c1cnn2C)C1CCN(CC(F)(F)F)CC1` [P-8, N-((4,6-dimethyl-2-oxo-1,2-dihydropyridin-3-yl)methyl)-4-(ethyl(1-(2,2,2-trifluoroethyl)piperidin-4-yl)amino)-1,5-dimethyl-1H-indazole-6-carboxamide], 0.053 µM; under `CCN(c1c(C)c(C(=O)NCc2c(C)cc(C)[nH]c2=O)cc2c1cnn2C)[C@H]1CC[C@@H](N(C)C)CC1` [P-13, N-((4,6-dimethyl-2-oxo-1,2-dihydropyridin-3-yl)methyl)-4-(((1S, 4S)-4-(dimethylamino)cyclohexyl) (ethyl)amino)-1,5-dimethyl-1H-indazole-6-carboxamide], 0.023 µM.
